Reference: US20230240958A1, “COSMETIC COMPOSITION WITH ENHANCED COLOR STABILITY FOR RETINOIC ACID PRECURSOR” (Conopco, Inc., d/b/a UNILEVER, priority 2020, published 2023)

Assay: Color stability by LabScan XE (CIELAB L*, a*, b*, ΔE) after storage
Assay type: physicochemical
Conditions: Examples 3 and 4

- color stability / ΔE over time, comparison in words: greater color stability
SMILES: CCCCCCCCCCCCCC(=O)OC(C)C [isopropyl myristate]
